Test systems include A549; ACHN; DU-145; K562; MCF7; MDA-MB-435; MOLT-4; NCI-H226; NCI-H23; OVCAR-5; OVCAR-8; RXF 393; SF-539; SK-MEL-28; SK-OV-3; SNB-75; U-251.
What all share (assay): NCI anticancer screen, dose series, 48 h

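Cells were grown in 96-well plates and exposed to each compound for 48 hours at five concentrations; endpoints were interpolated linearly between bracketing concentrations, or set to the highest concentration if not reached. Abbreviation: GI50, concentration required for 50% inhibition of growth.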 Active and inactive are the calls of the source. Rule as the data show it: active = GI50 up to about 1.1 µM and inactive = higher. Where a SMILES comes first, the peptide text is derived from it. The star is where a group is joined. Boc = CC(C)(C)OC(=O)*; Bn = c1ccc(C*)cc1 Some results are limits rather than exact numbers.

On to `CCOC(=O)CCC(NC(=O)c1ccc(OCc2nc3cc(C(F)(F)F)ccc3nc2-c2ccccc2)cc1)C(=O)OCC` (configuration not stated), for which the GI50 is > 100 µM (inactive) with A549; 94.2 µM (inactive) with ACHN; 86.1 µM (inactive) in the assay with DU-145; 46.6 µM (inactive) in the assay on K562; 5.37 µM (inactive) with MCF7; 84.1 µM (inactive) with MDA-MB-435. For the same molecule, the GI50 is 40 µM (inactive) with MOLT-4; 13 µM (inactive) in the assay on NCI-H226; 85.3 µM (inactive) in the assay on NCI-H23; > 100 µM (inactive) with OVCAR-5; > 100 µM (inactive) with OVCAR-8; 85.7 µM (inactive) with RXF 393. Besides, the GI50 in the assay on SF-539 was > 100 µM (inactive); in the assay with SK-MEL-28, > 100 µM (inactive); in the assay with SK-OV-3, > 100 µM (inactive); in the assay on SNB-75, 4.07 µM (inactive); in the assay on U-251, > 100 µM (inactive).

`N=C(N)NS(=O)(=O)c1ccc(NC(=O)c2cccc3c(NNc4ccc(C(=O)O)cc4)c4ccccc4nc23)cc1`: the GI50 in the assay with A549 was > 100 µM (inactive); in the assay on ACHN, > 100 µM (inactive); in the assay with DU-145, 48.5 µM (inactive); in the assay with K562, 50.1 µM (inactive); in the assay with MCF7 it was > 100 µM (inactive); with MDA-MB-435, 95.7 µM (inactive). In addition, the GI50 with MOLT-4 was 44.9 µM (inactive); in the assay with NCI-H226, 64 µM (inactive); in the assay with NCI-H23, > 100 µM (inactive); with OVCAR-5 it was > 100 µM (inactive); with OVCAR-8 it was > 100 µM (inactive); with RXF 393, > 100 µM (inactive). Further, the GI50 is 71.3 µM (inactive) in the assay on SF-539; > 100 µM (inactive) in the assay with SK-MEL-28; 47.2 µM (inactive) in the assay with SK-OV-3; > 100 µM (inactive) in the assay on SNB-75; 34.6 µM (inactive) in the assay with U-251.

Turning to `CC1CN(CCO)CC(C)O1` (configuration not stated), the GI50 in the assay with A549, with ACHN, in the assay on DU-145, in the assay with K562, with MCF7 and in the assay on MDA-MB-435 was > 100 µM (inactive) each time. Besides, the GI50 in the assay with MOLT-4, in the assay with NCI-H226, with NCI-H23, in the assay on OVCAR-5, in the assay with OVCAR-8 and in the assay on RXF 393 was > 100 µM (inactive) throughout. Also, the GI50 with SF-539, in the assay on SK-MEL-28, in the assay with SK-OV-3, in the assay with SNB-75 and in the assay with U-251 was > 100 µM (inactive) throughout.

With `COC(=O)C(CC(C)C)NC(=O)CNC(=O)C(Cc1ccc(OCc2ccccc2)cc1)NC(=O)C(COCc1ccccc1)NC(=O)OC(C)(C)C` (configuration not stated) (Boc-S(Bn)Y(Bn)GL-OMe; configuration not given here), the GI50 in the assay on A549 is > 100 µM (inactive); in the assay with ACHN, > 100 µM (inactive); in the assay on DU-145, > 100 µM (inactive); in the assay on K562 it was 3.49 µM (inactive); with MCF7, > 100 µM (inactive); in the assay with MDA-MB-435, > 100 µM (inactive). The GI50 in the assay on MOLT-4, in the assay with NCI-H226, with NCI-H23, in the assay with OVCAR-5, in the assay on OVCAR-8 and in the assay on RXF 393 was > 100 µM (inactive) in each case. For the same molecule, the GI50 with SF-539, with SK-MEL-28, in the assay with SK-OV-3, in the assay with SNB-75 and with U-251 was > 100 µM (inactive) each time.

In the case of `CSc1c(C(=O)Nc2ccc(Cl)cc2)c(N)nn1-c1ccccc1`, the GI50 in the assay with A549 is > 24.5 µM (inactive); with ACHN it was 78.7 µM (inactive); with DU-145, > 100 µM (inactive); in the assay with K562 it was > 100 µM (inactive); in the assay on MCF7, > 100 µM (inactive); in the assay with MDA-MB-435 it was > 100 µM (inactive). The GI50 in the assay on MOLT-4 is > 100 µM (inactive); in the assay on NCI-H226 it was > 100 µM (inactive); in the assay with NCI-H23, > 100 µM (inactive); in the assay on OVCAR-5 it was > 100 µM (inactive); in the assay with OVCAR-8, 21.1 µM (inactive); in the assay with RXF 393 it was 22.7 µM (inactive). In addition, the GI50 was > 100 µM (inactive) in the assay with SF-539; > 100 µM (inactive) in the assay with SK-MEL-28; 19.6 µM (inactive) in the assay on SK-OV-3; 21.6 µM (inactive) with SNB-75; 61.5 µM (inactive) in the assay with U-251.

On to `O=C(Nn1c(-c2ccccc2)nc2ccccc2c1=O)c1ccc(Cl)cc1`, for which the GI50 is 67.9 µM (inactive) in the assay with A549; 94.2 µM (inactive) with ACHN; > 100 µM (inactive) in the assay on DU-145; > 100 µM (inactive) in the assay with K562; > 100 µM (inactive) with MCF7; 91.2 µM (inactive) in the assay with MDA-MB-435. In addition, the GI50 with MOLT-4 was 59.6 µM (inactive); in the assay on NCI-H226, > 100 µM (inactive); in the assay on NCI-H23, 95.1 µM (inactive); in the assay with OVCAR-5, > 100 µM (inactive); in the assay with OVCAR-8 it was > 100 µM (inactive); with RXF 393 it was > 100 µM (inactive). Besides, the GI50 in the assay on SF-539 is > 100 µM (inactive); in the assay with SK-MEL-28, > 100 µM (inactive); with SK-OV-3 it was > 100 µM (inactive); in the assay on SNB-75 it was 27.1 µM (inactive); in the assay with U-251, 84.3 µM (inactive).

On to `COC(=O)c1oc([N+](=O)[O-])c(Cl)c1Cl`, for which the GI50 is 8.51 µM (inactive) in the assay on A549; 8.91 µM (inactive) in the assay on ACHN; 17.6 µM (inactive) with DU-145; 2.56 µM (inactive) with K562; 2.04 µM (inactive) with MCF7; 7.8 µM (inactive) in the assay with MDA-MB-435. Besides, the GI50 in the assay on MOLT-4 was 2.19 µM (inactive); in the assay with NCI-H226, 21.3 µM (inactive); in the assay with NCI-H23, 8.73 µM (inactive); with OVCAR-5, 8.13 µM (inactive); in the assay on OVCAR-8, 10.6 µM (inactive); in the assay with RXF 393, 12.7 µM (inactive). Besides, the GI50 in the assay on SF-539 was 6.01 µM (inactive); in the assay on SK-MEL-28 it was 8.53 µM (inactive); with SK-OV-3, 19 µM (inactive); in the assay on SNB-75, 7.78 µM (inactive); in the assay with U-251 it was 8.11 µM (inactive).

For `CC1(C)OCC(C2OC(C)(C)OC2[C@H]2O[C@@]3(O)[C@H]4[C@H](C=CC[C@@H]42)[C@@H](OCc2ccccc2)[C@H](OCc2ccccc2)[C@H]3OCc2ccccc2)O1` (some centres not stated), the GI50 with A549 was 24.8 µM (inactive); with ACHN, > 100 µM (inactive); in the assay with DU-145, 61 µM (inactive); in the assay with K562 it was 23.9 µM (inactive); with MCF7 it was 15.2 µM (inactive); in the assay on MDA-MB-435, 31.7 µM (inactive). Moreover, the GI50 was 12.5 µM (inactive) in the assay with MOLT-4; 59.3 µM (inactive) with NCI-H226; 28.4 µM (inactive) in the assay with NCI-H23; 54.3 µM (inactive) in the assay on OVCAR-5; 22.7 µM (inactive) in the assay with OVCAR-8; 16.5 µM (inactive) in the assay with RXF 393. Also, the GI50 is 27.2 µM (inactive) in the assay on SF-539; > 100 µM (inactive) in the assay on SK-MEL-28; > 100 µM (inactive) in the assay on SK-OV-3; 27.9 µM (inactive) with SNB-75; 53.6 µM (inactive) with U-251.

For `O=C1c2sccc2C(=O)c2c(CO)csc21`, the GI50 in the assay with A549 was 0.695 µM (active); in the assay on ACHN, 3.52 µM (inactive); in the assay on DU-145, 2.66 µM (inactive); with K562, 7.01 µM (inactive); in the assay with MCF7, 5.12 µM (inactive); with MDA-MB-435 it was 1.94 µM (inactive). Also, the GI50 in the assay with MOLT-4 was 4.89 µM (inactive); in the assay with NCI-H226 it was 4.82 µM (inactive); in the assay on NCI-H23, 2.07 µM (inactive); in the assay on OVCAR-5, 21.2 µM (inactive); with OVCAR-8 it was 3.66 µM (inactive); in the assay on RXF 393, 1.39 µM (inactive). Besides, the GI50 in the assay with SF-539 is 3.65 µM (inactive); in the assay with SK-MEL-28, 7.8 µM (inactive); in the assay with SK-OV-3 it was 11.4 µM (inactive); with SNB-75, 5.24 µM (inactive); in the assay on U-251, 6.03 µM (inactive).

Consider `Cc1ccc(-c2c(C#N)c(S)n(NS(=O)(=O)c3ccccc3)c(=O)c2C#N)cc1`, for which the GI50 is 39.7 µM (inactive) in the assay on A549; 28.1 µM (inactive) in the assay on ACHN; 53.3 µM (inactive) in the assay with DU-145; 33.6 µM (inactive) in the assay with K562; 28.6 µM (inactive) with MCF7; 23 µM (inactive) in the assay on MDA-MB-435. In addition, the GI50 in the assay with MOLT-4 was 15.9 µM (inactive); in the assay with NCI-H226 it was 17.9 µM (inactive); in the assay on NCI-H23, 37.8 µM (inactive); in the assay on OVCAR-5 it was 65.9 µM (inactive); in the assay on OVCAR-8, 21.2 µM (inactive); in the assay on RXF 393 it was 41.1 µM (inactive). The GI50 in the assay with SF-539 was 20.6 µM (inactive); in the assay with SK-MEL-28, > 100 µM (inactive); in the assay on SK-OV-3, 66.5 µM (inactive); with SNB-75 it was 42.2 µM (inactive); with U-251, 24.8 µM (inactive).

`OCCOCn1cc(Cn2ncc3c(SCc4ccccc4)ncnc32)nn1`: the GI50 in the assay with A549 is 40.3 µM (inactive); with ACHN, 99.3 µM (inactive); in the assay on DU-145, 43.7 µM (inactive); in the assay on K562, 20.4 µM (inactive); in the assay on MCF7, 43.6 µM (inactive); in the assay with MDA-MB-435, 15.5 µM (inactive). The GI50 is 14.4 µM (inactive) in the assay with MOLT-4; 62.8 µM (inactive) in the assay on NCI-H226; 38.3 µM (inactive) with NCI-H23; 79.3 µM (inactive) in the assay with OVCAR-5; 91.8 µM (inactive) with OVCAR-8; 31.6 µM (inactive) with RXF 393. For the same molecule, the GI50 is 39 µM (inactive) with SF-539; > 100 µM (inactive) in the assay with SK-MEL-28; 61.5 µM (inactive) in the assay on SK-OV-3; 46 µM (inactive) in the assay on SNB-75; 44.1 µM (inactive) in the assay with U-251.

The record behind these values is ChEMBL document CHEMBL1201862, “PubChem BioAssay data set” (2004).
